Some test systems named below: M14 melanoma; LOX IMVI melanoma; COLO 205 colon; HT29 colon; SF-268 CNS; PC-3 prostate; SK-MEL-28 melanoma; SNB-19 CNS; IGROV1 ovarian; HOP-92 NSCLC.
Common to all, as to experiment: inhibition of tumour cell growth, NCI panel, 48 h

In PubChem BioAssay (NCI) one finds GI50 and TGI data, which are given here for seven compounds.

Molecules are shown by their SMILES. Several values for one entry are separate records, joined by “and”; a condition that tells them apart may be missing. Identical values can stand only once.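 Grown in 96-well plates, cells were treated for 48 hours with each compound at five concentrations. Insufficient inhibition: endpoint recorded as highest concentration tested. At the GI50, growth is halved. Definition used: TGI = concentration required for complete inhibition of growth.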

Regarding `Cc1ccc(NC2=C(Sc3ccc(Cl)cc3)C(=O)N(Cc3ccccc3)C2=O)cc1Cl`, the GI50 in the assay on M14 melanoma is 3.88 µM; with LOX IMVI melanoma, 4.84 µM; in the assay with COLO 205 colon it was 31.9 µM; with HT29 colon, 10.4 µM; in the assay on SF-268 CNS, 6.26 µM; in the assay with PC-3 prostate, 5.47 µM. Also, the GI50 with SK-MEL-28 melanoma was 28.7 µM; in the assay with SNB-19 CNS, 6.03 µM; in the assay on IGROV1 ovarian it was 3.98 µM; in the assay with HOP-92 NSCLC, 4.59 µM. For the same compound, the TGI in the assay on M14 melanoma was 17.5 µM; in the assay on LOX IMVI melanoma it was 17.1 µM; with COLO 205 colon, above 100 µM; in the assay with HT29 colon, above 100 µM; with SF-268 CNS, 93.7 µM; in the assay with PC-3 prostate, 19.7 µM. In addition, the TGI in the assay on SK-MEL-28 melanoma was above 100 µM; in the assay with SNB-19 CNS, 28.9 µM; in the assay on IGROV1 ovarian, 15.3 µM; in the assay with HOP-92 NSCLC, 17 µM.
Take `Cc1nn2c(/C=C3/C(=O)Nc4ccc(Cl)cc43)c(-c3ccccc3)nc2s1`: the GI50 is 6.33 µM in the assay with M14 melanoma; 3.52 µM with LOX IMVI melanoma; 3.9 µM in the assay with COLO 205 colon; 4.03 µM in the assay with HT29 colon; 2.06 µM in the assay with SF-268 CNS; 1.79 µM in the assay with PC-3 prostate. The GI50 with SK-MEL-28 melanoma is 2.65 µM; with SNB-19 CNS it was 9.54 µM; with IGROV1 ovarian, 1.51 µM; in the assay with HOP-92 NSCLC, 0.58 µM. The TGI in the assay on M14 melanoma stood at 21.5 µM; with LOX IMVI melanoma, 14.8 µM; in the assay on COLO 205 colon it was 13.5 µM; in the assay on HT29 colon, 13.9 µM; with SF-268 CNS it was 5.19 µM; in the assay on PC-3 prostate, 5.37 µM. Also, the TGI turned out to be 7.06 µM with SK-MEL-28 melanoma, 34.2 µM with SNB-19 CNS, 10.2 µM with IGROV1 ovarian and 3.06 µM in the assay with HOP-92 NSCLC.
Regarding `Cc1ccc(NS(=O)(=O)c2cc(C)ccc2C)cc1`, the GI50 with M14 melanoma is 2.43 µM; in the assay with LOX IMVI melanoma, 5.13 µM; with COLO 205 colon, 3.49 µM; in the assay on HT29 colon, 2.84 µM; with SF-268 CNS it was 7 µM; in the assay on PC-3 prostate it was 11.4 µM. Further, the GI50 with SK-MEL-28 melanoma was 10.7 µM; in the assay with SNB-19 CNS it was 4.36 µM; in the assay on IGROV1 ovarian, 7.02 µM; with HOP-92 NSCLC, 12.9 µM. Moreover, the TGI in the assay with M14 melanoma worked out at 11 µM; with LOX IMVI melanoma, 22.5 µM; in the assay with COLO 205 colon it was 14.7 µM; in the assay on HT29 colon it was 12.3 µM; in the assay on SF-268 CNS it was 35.2 µM; in the assay on PC-3 prostate, 66.5 µM. The TGI with SK-MEL-28 melanoma was 37.3 µM; in the assay with SNB-19 CNS it was above 100 µM; in the assay on IGROV1 ovarian it was above 100 µM; in the assay with HOP-92 NSCLC it was 34.6 µM.
Take `Cc1c(CN2CCC(Nc3ncnc4sc(CC(F)(F)F)cc34)CC2)ccc2c1cc(C#N)n2Cc1cn[nH]c1`: the GI50 in the assay on M14 melanoma is 1.77 µM and 3.49 µM; in the assay with LOX IMVI melanoma it was 1.35 µM and 2.36 µM; with COLO 205 colon, 1.64 µM and 2.05 µM; in the assay with HT29 colon, 1.75 µM and 2.45 µM; in the assay on SF-268 CNS, 4.48 µM and 5.71 µM; in the assay on PC-3 prostate, 2.31 µM and 2.33 µM. Moreover, the GI50 with SK-MEL-28 melanoma is 2.2 µM and 5 µM; in the assay with SNB-19 CNS it was 6.75 µM and 6.03 µM; in the assay with IGROV1 ovarian, 5.23 µM and 23.8 µM; in the assay with HOP-92 NSCLC it was 3.81 µM and 1.09 µM. Further, the TGI in the assay with M14 melanoma is 3.69 µM; in the assay with LOX IMVI melanoma, 2.88 µM and 7.5 µM; in the assay with COLO 205 colon, 3.7 µM and 9.53 µM; in the assay on HT29 colon, 5.95 µM; in the assay on SF-268 CNS, 25.5 µM and > 36.5 µM; in the assay with PC-3 prostate it was 18.9 µM and > 32.7 µM. Also, the TGI in the assay with SK-MEL-28 melanoma was 6.28 µM; in the assay with SNB-19 CNS, 28.9 µM; in the assay on IGROV1 ovarian, 26.1 µM and > 100 µM; with HOP-92 NSCLC, 25.1 µM and > 25.9 µM.
With `Cn1c2ccccc2c2nnc(N/N=C/c3ccccn3)nc21`, the GI50 in the assay on M14 melanoma was 0.285 µM; in the assay on LOX IMVI melanoma, 0.331 µM; with COLO 205 colon, 0.401 µM; with HT29 colon, 0.529 µM; in the assay on SF-268 CNS it was 0.343 µM; in the assay on PC-3 prostate, 1.44 µM. In addition, the GI50 was 0.494 µM in the assay on SK-MEL-28 melanoma, 0.412 µM with SNB-19 CNS, 0.44 µM in the assay with IGROV1 ovarian and 0.413 µM with HOP-92 NSCLC. The TGI in the assay on LOX IMVI melanoma is 3.33 µM; in the assay on COLO 205 colon, 18.5 µM; in the assay with HT29 colon, above 100 µM; in the assay with PC-3 prostate it was above 100 µM; in the assay with SK-MEL-28 melanoma, 26.6 µM; in the assay with SNB-19 CNS it was above 100 µM. In addition, the TGI in the assay on IGROV1 ovarian was above 23.6 µM; in the assay with HOP-92 NSCLC it was above 59.1 µM.
Consider `CCS(=O)(=O)c1ccc(OC)c(Nc2nccc(N(C)c3ccc4c(C)[nH]nc4c3)n2)c1`, for which the GI50 with M14 melanoma was 8.46 µM; in the assay on LOX IMVI melanoma it was 4.29 µM; in the assay on COLO 205 colon, 11 µM; with HT29 colon it was 5.66 µM; in the assay with SF-268 CNS, 4.74 µM; in the assay on PC-3 prostate it was 5.46 µM. Further, the GI50 with SK-MEL-28 melanoma was 6.8 µM; in the assay on SNB-19 CNS, 9.74 µM; in the assay with IGROV1 ovarian it was 3.97 µM; in the assay on HOP-92 NSCLC, 0.622 µM. For the same compound, the TGI in the assay on M14 melanoma was above 21.8 µM; with LOX IMVI melanoma, 12 µM; in the assay with COLO 205 colon it was above 25 µM; with HT29 colon, 16.4 µM; in the assay with SF-268 CNS, above 17.6 µM; in the assay with PC-3 prostate, 22.1 µM. The TGI in the assay on SK-MEL-28 melanoma is above 25 µM; in the assay on SNB-19 CNS it was above 25 µM; in the assay on IGROV1 ovarian, 16.5 µM; in the assay with HOP-92 NSCLC, 3.64 µM.
For the compound `CCN(CC)CCCC(C)Nc1cnc(C(=O)Nc2cc(F)cc3cccnc23)cn1` (stereo not drawn), the GI50 with M14 melanoma is 2.04 µM and 0.994 µM; in the assay with LOX IMVI melanoma it was 3.32 µM and 0.882 µM; in the assay on COLO 205 colon it was 1.16 µM and 0.461 µM; with HT29 colon it was 2.96 µM and 0.668 µM; with SF-268 CNS, 5.32 µM and 1.56 µM; in the assay on PC-3 prostate it was 3.55 µM and 0.614 µM. Further, the GI50 in the assay on SK-MEL-28 melanoma was 1.84 µM and 1.22 µM; in the assay on SNB-19 CNS, 10.5 µM and 1.73 µM; with IGROV1 ovarian it was 3.03 µM and 0.379 µM; in the assay with HOP-92 NSCLC, 2.43 µM and 1.19 µM. The TGI was 4.38 µM and 2.58 µM in the assay on M14 melanoma; 11.3 µM and 2.28 µM in the assay with LOX IMVI melanoma; 3.57 µM and 2.16 µM in the assay with COLO 205 colon; 10.8 µM and 4.76 µM with HT29 colon; 20.9 µM and 3.25 µM in the assay with SF-268 CNS; 15.3 µM and 2.24 µM in the assay with PC-3 prostate. The TGI in the assay on SK-MEL-28 melanoma is 3.53 µM and 2.5 µM; in the assay with SNB-19 CNS it was 22.8 µM and 3.14 µM; with IGROV1 ovarian, 12 µM and 1.4 µM; with HOP-92 NSCLC it was 14.5 µM and 2.62 µM.
